From US20260206760A1, “AZOLE COMPOUNDS FOR CONTROLLING AND COMBATING INVERTEBRATE PESTS” (FMC CORPORATION, priority 2022, published 2026)

Legend:
Format in all cases: in vivo
[1] = tested on: diamondback moth (Plutella xylostella (L.)); settings: sprayed at 250 ppm; neonate larvae; assessed after 6 days; very good to excellent levels of control efficacy
Procedure: (§1) Test compounds were formulated using a solution containing 10% acetone, 90% water and 300 ppm Activator 90® non-ionic surfactant (Loveland Products, Loveland, Colorado, USA). The formulated compounds were applied in 1 mL of liquid through an atomizer nozzle positioned 1.27 cm (0.5 inches) above the top of each test unit. Test compounds were sprayed at the rates indicated, and each test was replicated three times.
For evaluating control of diamondback moth (Plutella xylostella (L.)) the test unit consisted of a small open container with a 12-14-day-old mustard plant inside. This was pre-infested with ~50 neonate larvae that were dispensed into the test unit via corn cob grits using an inoculator. The larvae moved onto the test plant after being dispensed into the test unit.
Test compounds were formulated and sprayed at 250 and/or 50 ppm. After spraying of the formulated test compound, each test unit was allowed to dry for 1 hour and then a black, screened cap was placed on top. The test units were held for 6 days in a growth chamber at 25° C. and 70% relative humidity. Plant feeding damage was then visually assessed based on foliage consumed, and larvae were assessed for mortality.

[2] = tested on: cotton melon aphid (Aphis gossypii (Glover)); test: whole plant or invertebrate; settings: 144 h, assessed after 6 days; for mortality at 50 ppm: sprayed at 50 ppm
Procedure: as §1
For evaluating control of cotton melon aphid (Aphis gossypii (Glover)) through contact and/or systemic means, the test unit consisted of a small open container with a 5-day-old okra plant inside. This was pre-infested with 30-40 insects on a piece of leaf according to the cut-leaf method, and the soil of the test unit was covered with a layer of sand.
Test compounds were formulated and sprayed at 250 and/or 50 ppm. After spraying, the test units were maintained in a growth chamber for 6 days at 19° C. and 70% relative humidity. Each test unit was then visually assessed for insect mortality.

[3] = tested on: green peach aphid (Myzus persicae (Sulzer)); test: Test B: control of green peach aphid, spray on radish plant, visual mortality; settings: 144 h, assessed after 6 days; for mortality at 50 ppm: sprayed at 50 ppm
Procedure: as §1
For evaluating control of green peach aphid (Myzus persicae (Sulzer)) through contact and/or systemic means, the test unit consisted of a small open container with a 12-15-day-old radish plant inside. This was pre-infested by placing on a leaf of the test plant 30-40 aphids on a piece of leaf excised from a culture plant (cut-leaf method). The aphids moved onto the test plant as the leaf piece desiccated. After pre-infestation, the soil of the test unit was covered with a layer of sand.
Test compounds were formulated and sprayed at 250 and/or 50 ppm. After spraying of the formulated test compound, each test unit was allowed to dry for 1 hour and then a black, screened cap was placed on top. The test units were held for 6 days in a growth chamber at 19-21° C. and 50-70% relative humidity. Each test unit was then visually assessed for insect mortality.

[4] = tested on: sweetpotato whitefly (Bemisia tabaci (Gennadius)); test: whole plant or invertebrate; settings: 312 h, sprayed at 50 ppm, eggs on cotton leaf, assessed after 13 days
Procedure: as §1
For evaluating control of the sweetpotato whitefly (Bemisia tabaci (Gennadius)) through contact and/or systemic means, the test unit consisted of a small open container with a 12-14-day-old cotton plant inside. Prior to the spray application, both cotyledons were removed from the plant, leaving one true leaf for the assay. Adult whiteflies were allowed to lay eggs on the plant and then were removed from the test unit. Cotton plants infested with at least 15 eggs were submitted to the test for spraying.
Test compounds were formulated and sprayed at 50 and/or 10 ppm. After spraying, the test units were allowed to dry for 1 hour. The cylinders were then removed, and the units were taken to a growth chamber and held for 13 days at 28° C. and 50-70% relative humidity. Each test unit was then visually assessed for insect mortality.

[5] = tested on: corn planthopper (Peregrinus maidis (Ashmead)); test: whole plant or invertebrate; settings: 144 h, sprayed at 50 ppm, nymphs, assessed after 6 days
Procedure: as §1
For evaluating control of corn planthopper (Peregrinus maidis (Ashmead)) through contact and/or systemic means, the test unit consisted of a small open container with a 3-4-day-old corn (maize) plant inside. White sand was added to the top of the soil prior to application of the test compound.
Test compounds were formulated and sprayed at 250 and/or 50 ppm and/or 10 ppm. After spraying of the formulated test compound, the test units were allowed to dry for 1 h before they were post-infested with ~15-20 nymphs (18-to-21-day-old). A black, screened cap was placed on the top of each test unit, and the test units were held for 6 days in a growth chamber at 22-24° C. and 50-70% relative humidity. Each test unit was then visually assessed for insect mortality.

Row | SMILES | control efficacy (feeding damage and/or mortality) [1] | mortality at 50 ppm [2] [%] | mortality at 250 ppm ([2]; sprayed at 250 ppm) [%] | mortality at 50 ppm [3] [%] | mortality at 250 ppm ([3]; sprayed at 250 ppm) [%] | mortality at 50 ppm [4] [%] | mortality at 50 ppm [5] [%]
1 | Fc1cncc(-n2ccnn2)c1C1CC1c1ccc(C(F)(F)F)cc1 (stereo not shown) [Compound 3, 3-fluoro-5-(triazol-1-yl)-4-[2-[4-(trifluoromethyl)phenyl]cyclopropyl]pyridine] | 40% or less feeding damage and/or 100% mortality | – | – | – | – | – | –
2 | Fc1cncc(-n2nccn2)c1C1CC1c1ccc(C(F)(F)F)cc1 (stereo not shown) [Compound 4, 3-fluoro-5-(triazol-2-yl)-4-[2-[4-(trifluoromethyl)phenyl]cyclopropyl]pyridine] | 40% or less feeding damage and/or 100% mortality | ≥ 80 | ≥ 80 | ≥ 80 | ≥ 80 | ≥ 70 | –
3 | FC(F)(F)Oc1ccc(/C=C/c2ccncc2-n2nccn2)cc1 [Compound 1, 3-(1,2,3-triazol-2-yl)-4-[(1E)-2-[4-(trifluoromethoxy)phenyl]ethenyl]pyridine] | – | ≥ 80 | – | ≥ 80 | – | – | ≥ 80
